Test system: participants with T1D
Assay: Randomized crossover clinical trial (NCT04201496): CGM glycemic outcomes with 5 mg daily empagliflozin adjunctive to AID (Control-IQ, CIQ) or PLGS (Basal-IQ, BIQ)
Assay type: in vivo, human
Details: for % CGM time <50 mg/dL (<2.8 mmol/L) / % CGM time <60 mg/dL (<3.3 mmol/L) / % CGM time <70 mg/dL (<3.9 mmol/L) / % CGM time >180 mg/dL (>10.0 mmol/L) / % CGM time >250 mg/dL (>13.9 mmol/L) / % CGM time >300 mg/dL (>16.7 mmol/L) / CGM HBGI / CGM LBGI: median (IQR)
Protocol: FIG. 2 presents a study analysis relative to baseline, control IQ (CIQ) (e.g., AID), and basal IQ (BIQ) (e.g., PLGS) implementation, according to investigation that is demonstrable of one or more embodiments herein. Therein, an experimental arm (G1, G2) providing an initial daily dose of 5 mg empagliflozin (EMPA) is depicted against a control arm (G3, G4) without such dosing (NOEMPA). Relative characteristics of the analysis are provided below.
Study Design: A single-center, randomized, controlled, unblinded, crossover clinical trial (NCT04201496) compared four parallel groups, two groups in the experimental arm (EMPA) with 5 mg daily empagliflozin as adjunctive therapy to PLGS or AID, and two groups in the control arm (NOEMPA) with no drug and with a PLGS system (Basal-IQ, Tandem Diabetes Care) or AID system (Control-IQ, Tandem Diabetes Care). The groups within each arm differed from one another in the order of the randomly assigned crossover technological intervention, relative to PLGS being followed by AID or AID being followed by PLGS, respectively (FIG. 4). The study protocol was approved by the University of Virginia Institutional Review Board (IRB). An investigational device exemption (IDE), including an investigational new drug (IND) application for empagliflozin, was approved by the FDA. Safety aspects were overseen by an external data and safety monitoring board (DSMB). Participants: Major inclusion criteria were T1D treated with insulin for at least one year, use of continuous subcutaneous insulin infusion therapy for at least six months, age 18-65 yrs., no use of glucose lowering agents other than insulin, and Hb1Ac<9% (75 mmol/mol). Randomization: A (1:1:1:1) randomization assigned participants to either Group 1, AID-EMPA (4 weeks) followed by PLGS-EMPA (2 weeks), Group 2, PLGS-EMPA (2 weeks) followed by AID-EMPA (4 weeks), Group 3, AID-NOEMPA (4 weeks) followed by PLGS-NOEMPA (2 weeks), and Group 4, PLGS-NOEMPA (2 weeks) followed by AID-NOEMPA (4 weeks). Procedures: After confirmation of eligibility, participants underwent study equipment and medication training (experimental arm), or only study equipment training (control arm). Study equipment consisted of Dexcom G6® CGM (Dexcom Inc., San Diego, CA), Contour® Next blood glucose (Ascensia Diabetes Care, Basel, Switzerland) and Precision Xtra® blood ketone meters (Abbott, Alameda, CA) with their respective test strips; infusion sets, and the use of the t:slim X2™ insulin pump with Basal-IQ or Control-IQ technologies (Tandem Diabetes Care, San Diego, CA), according to randomization. […] Participants in the experimental arm were asked to record two days of baseline ketone values before initiating the use of the study drug. Thereafter, participants were directed to use the study CGM with EMPA for 1-2 weeks. A tolerance to the medication was assessed prior to the starting of the next study phase, including adherence to the protocol, ketone testing 2-4 times per day with monitored values not greater than 0.6 mmol/L on at least two successive occasions (the first testing upon waking in a fasted state), no adverse events relating to perineal infection or symptomatic postural hypotension, and no evidence of significant hypoglycemia <54 mg/dL, or any other listed adverse effects of the medication. Participants in the control arm were directed to use the study CGM for 1-2 weeks. Sample Size: The total sample size was projected to be 40 participants, assuming 1) 1:1:1:1 randomization; 2) 90% power and type 1 error a=0.01, further reinforcing the feasibility of hierarchical analyses. The projected recruitment sample was n=50, to accommodate up to 20% attrition rate without sacrificing statistical power. Analytical methods: For the primary analysis, TIR during the day in the 4-week AID period was compared between the two EMPA groups versus the two NOEMPA groups using a linear mixed-effects regression model while adjusting for pre-randomization HbAlc and age. […]

[1] = overall, CIQ-EMPA vs. BIQ-NOEMPA, BIQ-EMPA vs. CIQ-NOEMPA
[2] = overall, CIQ-EMPA vs. CIQ-NOEMPA, BIQ-EMPA vs. BIQ-NOEMPA
[3] = overall, CIQ-EMPA vs. CIQ-NOEMPA, BIQ-EMPA vs. BIQ-NOEMPA, listed as AID-EMPA
[4] = overnight, CIQ-EMPA vs. BIQ-EMPA
[5] = overnight, CIQ-EMPA vs. BIQ-EMPA, listed as AID-EMPA
[6] = overnight, CIQ-EMPA vs. BIQ-NOEMPA, BIQ-EMPA vs. CIQ-NOEMPA
[7] = overnight, CIQ-EMPA vs. CIQ-NOEMPA, BIQ-EMPA vs. BIQ-NOEMPA

**Q.** What does the source list for `OC[C@H]1O[C@@H](c2ccc(Cl)c(Cc3ccc(O[C@H]4CCOC4)cc3)c2)[C@H](O)[C@@H](O)[C@@H]1O` [CIQ-EMPA, empagliflozin]?
**A.** Difference: CGM HBGI [1]: −5.4; Difference: CGM LBGI [1]: −0.1; Difference: % CGM time >180 mg/dL (>10.0 mmol/L) [2]: −22.3 percentage points; Difference: CGM HBGI [2]: −2.7; Difference: CGM LBGI [2]: 0; Difference: CGM SD [2]: -12.3 mg/dL; Difference: % CGM time 70-180 mg/dL (<3.9-10.0 mmol/L) [3]: +14.7 percentage points; Difference: % CGM time >180 mg/dL (>10.0 mmol/L) [3]: −12.3 percentage points; Difference: % CGM time >250 mg/dL (>13.9 mmol/L) [3]: −4.9 percentage points; % CGM time <70-140 mg/dL (<3.9-7.8 mmol/L) (overall, n = 16, mean ± SD): 59.6 ± 13.7%; % CGM time <70-180 mg/dL (<3.9-10.0 mmol/L) (overall, n = 16, mean ± SD): 83 ± 10.6%; CGM CV (%) (overall, n = 16, mean ± SD): 29.4 ± 3.6%; CGM SD (overall, n = 16, mean ± SD): 40.5 ± 9.4 mg/dL; Mean CGM glucose (overall, n = 16, mean ± SD): 137 ± 18.6 mg/dL; % CGM time <50 mg/dL (<2.8 mmol/L) (overall, n = 16): 0(0-0.2) %; % CGM time <60 mg/dL (<3.3 mmol/L) (overall, n = 16): 0.3(0.1-0.5) %; % CGM time <70 mg/dL (<3.9 mmol/L) (overall, n = 16): 1.1(0.5-1.5) %; % CGM time >180 mg/dL (>10.0 mmol/L) (overall, n = 16): 11.5(7-19) %; % CGM time >250 mg/dL (>13.9 mmol/L) (overall, n = 16): 1.1(0.2-2.9) %; % CGM time >300 mg/dL (>16.7 mmol/L) (overall, n = 16): 0(0-0.5) %; CGM HBGI (overall, n = 16): 2.7(2-4.4); CGM LBGI (overall, n = 16): 0.5(0.4-0.6); Difference (95% CI): % CGM time 70 mg/dL (<3.9 mmol/L) [4]: −1.5 percentage points; Difference (95% CI): % CGM time <50 mg/dL (<2.8 mmol/L) [4]: 0.2 percentage points; Difference (95% CI): % CGM time <60 mg/dL (<3.3 mmol/L) [4]: −0.4 percentage points; Difference (95% CI): % CGM time >250 mg/dL (>13.9 mmol/L) [4]: −2.5 percentage points; Difference (95% CI): % CGM time >300 mg/dL (>16.7 mmol/L) [4]: −2.5 percentage points; Difference (95% CI): CGM CV (%) [4]: −5.1%; Difference (95% CI): CGM HBGI [4]: −2.1; Difference (95% CI): CGM LBGI [4]: −0.5; Difference (95% CI): CGM SD [4]: -10.2 mg/dL; Difference (95% CI): Mean CGM glucose [4]: -11.7 mg/dL; Difference (95% CI): % CGM time 70-180 mg/dL (3.9-10.0 mmol/L) [5]: +10.2 percentage points; Difference (95% CI): % CGM time >180 mg/dL (>10.0 mmol/L) [5]: −9.5 percentage points; Difference (95% CI): % CGM time <60 mg/dL (<3.3 mmol/L) [6]: −0.3 percentage points; Difference (95% CI): % CGM time >180 mg/dL (>10.0 mmol/L) [6]: −27.3 percentage points; Difference (95% CI): % CGM time >250 mg/dL (>13.9 mmol/L) [6]: −16.4 percentage points; Difference (95% CI): % CGM time >300 mg/dL (>16.7 mmol/L) [6]: −7.6 percentage points; Difference (95% CI): CGM CV (%) [6]: −11.1%; Difference (95% CI): CGM HBGI [6]: −7.3; Difference (95% CI): CGM LBGI [6]: −0.3; Difference (95% CI): CGM SD [6]: -27.1 mg/dL; Difference (95% CI): Mean CGM glucose [6]: -36.2 mg/dL; Difference (95% CI): % CGM time 70 mg/dL (<3.9 mmol/L) [7]: −1.1 percentage points; Difference (95% CI): % CGM time <50 mg/dL (<2.8 mmol/L) [7]: −0.1 percentage points; Difference (95% CI): % CGM time <60 mg/dL (<3.3 mmol/L) [7]: −0.6 percentage points; Difference (95% CI): % CGM time >180 mg/dL (>10.0 mmol/L) [7]: −14.6 percentage points; Difference (95% CI): % CGM time >250 mg/dL (>13.9 mmol/L) [7]: −5.5 percentage points; Difference (95% CI): CGM HBGI [7]: −3.2; Difference (95% CI): CGM LBGI [7]: 0.2; Difference (95% CI): CGM SD [7]: -18.3 mg/dL; Difference (95% CI): Mean CGM glucose [7]: -21.5 mg/dL; % CGM time 70-140 mg/dL (3.9-7.8 mmol/L) (overnight, n = 16, mean ± SD): 64 ± 18%; % CGM time 70-180 mg/dL (3.9-10.0 mmol/L) (overnight, n = 16, mean ± SD): 87 ± 13%; CGM CV (%) (overnight, n = 16, mean ± SD): 25.4 ± 5.4%; CGM SD (overnight, n = 16, mean ± SD): 34.2 ± 10.7 mg/dL; Mean CGM glucose (overnight, n = 16, mean ± SD): 133 ± 20 mg/dL; % CGM time <50 mg/dL (<2.8 mmol/L) (overnight, n = 16): 0(0-0.3) %; % CGM time <60 mg/dL (<3.3 mmol/L) (overnight, n = 16): 0.3(0-0.5) %; % CGM time <70 mg/dL (<3.9 mmol/L) (overnight, n = 16): 0.7(0-1.3) %; % CGM time >180 mg/dL (>10.0 mmol/L) (overnight, n = 16): 6.3(3.3-11.1) %; % CGM time >250 mg/dL (>13.9 mmol/L) (overnight, n = 16): 0(0-2) %; % CGM time >300 mg/dL (>16.7 mmol/L) (overnight, n = 16): 0(0-0.4) %; CGM HBGI (overnight, n = 16): 2.1(1.3-2.7); CGM LBGI (overnight, n = 16): 0.4(0.2-0.5); night-time in range, h out of 8 h (overnight, out of 8 h of the night-time, listed as AID-EMPA): 7 h

Source: patent US20250345512A1, “COMBINATION SODIUM-GLUCOSE COTRANSPORTER INHIBITOR (SGLTI) INSULIN THERAPY FOR GLYCEMIC CONTROL IN TYPE 1 DIABETES” (University of Virginia Patent Foundation, priority 2022, published 2025)
